According to publication PMC9457828, “Chemical Markers and Pharmacological Characters of Pelargonium graveolens Essential Oil from Palestine” (Molecules, 2022):
≈ marks a conversion by molar mass, not a printed value. Marks after values point to notes of the source that are not given here. One block for each compound: values may come before it.

Columns and labels:
lipase = biological target: lipase; parameters: method as in earlier work; conditions: PGEO from Jordan; cited from earlier work
[1] = DPPH free radical scavenging activity; conditions: anti-DPPH radical activity, 30 min, 517 nm
Method: Spectrophotometry at 517 nm was used to measure the absorbance, which was then compared with the control. The DPPH suppressant effect was calculated using the formula below: […]

Hep3B = test: cells; type: cell-based; conditions: Homo sapiens, 24 h, MTS
Method: Human cervical (HeLa), breast (MCF-7), and liver (Hep3B) cancer cell lines were cultured in RPMI-1640 medium (Sigma-Norwich, Norfolk, UK). Then each kind of the tested cells was treated with 10% fetal bovine serum mixed with 1% penicillin/streptomycin antibiotics (BI, Ghaziabad, UP, India), and 1% L-glutamine (Sigma-Norwich, Norfolk, UK). The cancer cells were cultured at 37 °C in a humidified atmosphere with 5% CO2 and then planted in a 96-well plate at 2.6 × 10^4 cells/well. After 2 days, the EO with different concentrations (10, 30, 60, 120, and 500 µg/mL) was applied to the cells for 24 h. According to the manufacturer’s guidelines, cell viability was estimated by the CellTilter 96® Aqueous One Solution Cell Proliferation (MTS) method. In the end, 100 μL of media and 20 μL of MTS solution were added to each well, and the well plates were incubated at 37 °C for 2 h. The absorbance was measured at 490 nm.

[2] = system: Staphylococcus aureus (2592); test: Broth microdilution, S. aureus; type: cell-based
From the text: (§1) The microdilution method was used to assess the antimicrobial activity of the PGEO against selected bacterial and fungal strains according to the method [49].

[3] = system: methicillin-resistant S. aureus (MRSA); test: Broth microdilution, MRSA; type: cell-based; conditions: Staphylococcus aureus, clinical strain
From the text: as §1

[4] = system: Escherichia coli (25,922); test: Broth microdilution, E. coli; type: cell-based
From the text: as §1

Proteus vulgaris (8427) = test: Broth microdilution, P. vulgaris; type: cell-based
From the text: as §1

[5] = system: Klebsiella pneumonia (13,883); test: Broth microdilution, K. pneumoniae; type: cell-based
From the text: as §1

[6] = system: Pseudomonas aeruginosa (9027); test: Broth microdilution, P. aeruginosa; type: cell-based
From the text: as §1

S. aureus = system: S. aureus; parameters: method as in PMID 26221178; conditions: cited from earlier work
E. coli = system: E. coli; parameters: method as in PMID 26221178; conditions: cited from earlier work
S. aureus species = system: S. aureus species; parameters: method as in PMID 31284397; conditions: cited from earlier work
[7] = system: Candida albicans (ATCC 90028); test: Broth microdilution, C. albicans; type: cell-based; conditions: ATCC90028
From the text: as §1

SMILES: CCCCCCCCCCC[C@@H](C[C@@H]1OC(=O)[C@H]1CCCCCC)OC(=O)[C@H](CC(C)C)NC=O [Orlistat]
anti-lipase IC50 (lipase): 0.114 ± 0.0 µg/mL

SMILES: CC1(C)S[C@@H]2[C@H](NC(=O)[C@H](N)c3ccccc3)C(=O)N2[C@H]1C(=O)O [Ampicillin]
MIC [2]: 6.25 ± 0.2 µg/mL (≈ 17.9 µM) | MIC [3]: 32 ± 0.64 µg/mL (≈ 91.6 µM) | MIC [4]: 3.12 ± 0.56 µg/mL (≈ 8.93 µM) | MIC (Proteus vulgaris (8427)): 3.25 ± 0.21 µg/mL (≈ 9.3 µM) | MIC [5]: 12.5 ± 0.05 µg/mL (≈ 35.8 µM) | MIC [6]: 100 ± 1.01 µg/mL (≈ 286 µM)

SMILES: O=C(O)c1cn(C2CC2)c2cc(N3CCNCC3)c(F)cc2c1=O [Ciprofloxacin]
MIC (Proteus vulgaris (8427)): 0.06 ± 0.001 µg/mL (≈ 0.181 µM) | MIC [5]: 0.06 ± 0.001 µg/mL (≈ 0.181 µM)

SMILES: CC(C)=CCCC(C)CCO (stereo not drawn) [citronellol]
MIC S. aureus (S. aureus): 400 µg/mL (≈ 2560 µM) | MIC E. coli (E. coli): 300 µg/mL (≈ 1920 µM) | MIC S. aureus (S. aureus species): 30 µg/mL (≈ 192 µM)

SMILES: OC(Cn1cncn1)(Cn1cncn1)c1ccc(F)cc1F [Fluconazole]
MIC [7]: 3.12 ± 0.01 µg/mL (≈ 10.2 µM)

The remaining lines, values ahead:

IC50 against DPPH [1]: 1.88 ± 0.45 ^a µg/mL
SMILES: Cc1c(C)c2c(c(C)c1O)CCC(C)(C(=O)O)O2 (stereo not drawn) [Trolox]

IC50 (Hep3B): 1.21 ± 1 µg/mL (≈ 2.23 µM)
SMILES: COc1cccc2c1C(=O)c1c(O)c3c(c(O)c1C2=O)C[C@@](O)(C(=O)CO)C[C@@H]3O[C@H]1C[C@H](N)[C@H](O)[C@H](C)O1 [Doxorubicin]
